According to patent publication US20240336566A1, “CRYSTALLINE FORMS OF A COMPOUND FOR THE TARGETED DEGRADATION OF THE ANDROGEN RECEPTOR” (Arvinas Operations, Inc., priority 2023, published 2024):

Key:
Type in all cases: physicochemical
[1] = Co-crystal screen: XRPD post temperature cycling and post storage at 40° C./75% RH;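 as to XRPD results, primary co-crystal screen post temperature cycling: value is the Compound A free base XRPD pattern number and 9 means a potential new one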; conditions: for XRPD results, primary co-crystal screen post temperature cycling / XRPD results, primary co-crystal screen post storage at 40° C./75% RH: Compound A + 1.05 eq. co-former (= label); for XRPD form post storage at 40° C./75% RH: ca. 24 or ca. 30 hours
[2] = Thermodynamic solubility determination in buffers (HPLC); conditions: 25° C.
Source text: No clear solubility advantage of the salts was noted over Compound A free base.

[3] = Primary salt screen: XRPD post temperature cycling/evaporation, post drying and post storage at 40° C./75% RH; conditions: post drying and 40° C./75% RH
Experimental: • 30 mg samples of Compound A were weighed out into 2 mL screw cap sample vials for 96 experiments. To these, 200 μL of the appropriate solvent system was added to dissolve the material or form a slurry. See Table 16 for the solvent systems selected for the primary salt screen.
• 1.05 eq. of solid counterions were weighed into six separate vials each and 1 molar stock solutions were prepared for liquid counterions in 5 mL of THF. See Table 17 for selected counterions and mass/volume needed for 1.05 eq. additions. • 100 μL of the appropriate solvent was added to the solid counterions.
The solution/slurry of counterion was added to the solution/slurry of the free base material.
• The samples were placed in an incubator shaker to temperature cycle between ambient and 40° C. over 4 hour cycles. • After ca. 72 hours of temperature cycling, observations were noted, see Table 19.
• Where slurries were obtained, the solids were isolated via centrifugation. Solids and gels were analyzed by XRPD.
Any samples that were clear solutions after temperature cycling were left to evaporate at ambient conditions. See Table 20 for observations made after evaporation. Solids obtained through evaporation were analyzed by XRPD.
• The samples obtained from temperature cycling were dried under vacuum at 40° C. for ca. 20 hours while the samples obtained from evaporation were dried under vacuum at 40° C. for ca. 4 hours. […]

[4] = 7-day stability assessment (appearance, HPLC, XRPD); conditions: for Reported Purity / Total impurities: HPLC
Experimental: The material was gently ground to release any agglomerates and loaded onto a multi-well plate with Kapton or Mylar polymer film to support the sample. […] Data were visualized and images generated using the HighScore Plus 4.7 desktop application (PANalytical, 2θ17).
They all remained white or off-white solids. • XRPD analysis determined the patterns were retained.

[5] = Buffer pH 1.2, cf concentration of free base, listed as Compound A Phosphate
[6] = Buffer pH 3.0, LOQ 0.00025 mg/mL
[7] = Buffer pH 4.0, LOQ 0.00025 mg/mL
[8] = 7 days at 40° C./75% RH (open vial)
[9] = 7 days at Ambient light (closed vial)
[10] = input material before storage (baseline of the stability assessment)

## N[C@@H](Cc1c[nH]c2ccccc12)C(=O)O [L-Tryptophan]
[1]; DCM:Methanol (50:50 % v/v)
  XRPD results, primary co-crystal screen post temperature cycling: 2

## NC(N)=O [Urea]
[1]; 1,4-Dioxane
  XRPD results, primary co-crystal screen post storage at 40° C./75% RH: 4
  XRPD results, primary co-crystal screen post temperature cycling: 9
[1]; DCM:Methanol (50:50 % v/v)
  XRPD results, primary co-crystal screen post storage at 40° C./75% RH: 2
  XRPD results, primary co-crystal screen post temperature cycling: 2
[1]; THF
  XRPD results, primary co-crystal screen post storage at 40° C./75% RH: 1
  XRPD results, primary co-crystal screen post temperature cycling: 1

## COc1cc(O[C@H]2C(C)(C)[C@H](NC(=O)c3ccc(N4CCC(CN5CCN(c6ccc(C(=O)N[C@H]7CCC(=O)NC7=O)c(F)c6)CC5)CC4)cc3)C2(C)C)ccc1C#N [phosphate Pattern 1]
[2]; [5]
  0 Hr Solubility: 5.9 µg/mL
  4 Hr Solubility: 29.1 µg/mL
  24 Hr Solubility: 30.6 µg/mL
[2]; [6]
  0 Hr Solubility: <0.25 µg/mL
  4 Hr Solubility: <0.25 µg/mL
  24 Hr Solubility: <0.25 µg/mL
[2]; [7]
  0 Hr Solubility: <0.25 µg/mL
  4 Hr Solubility: <0.25 µg/mL
[2]; Buffer pH 4.0, LOQ 0.00025 mg/mL, listed as Compound A Phosphate
  24 Hr Solubility: <0.25 µg/mL
[2]; pH 1.2, after 24 hours, as concentration of Compound A free base
  thermodynamic solubility: 30.6 µg/mL
[3]
  assessment of salt form in the primary salt screen: stable hydrates

## COc1cc(O[C@H]2C(C)(C)[C@H](NC(=O)c3ccc(N4CCC(CN5CCN(c6ccc(C(=O)N[C@H]7CCC(=O)NC7=O)c(F)c6)CC5)CC4)cc3)C2(C)C)ccc1C#N [free base Pattern 9]
[1]
  XRPD form post storage at 40° C./75% RH: converts to Pattern 4
[1]; listed as Pattern 9
  XRPD form post storage at 40° C./75% RH: converted to free base Pattern 4

## O=C(O)[C@@H]1CCCN1 [L-Proline]
[1]; 1,4-Dioxane
  XRPD results, primary co-crystal screen post storage at 40° C./75% RH: 4
  XRPD results, primary co-crystal screen post temperature cycling: 9
[1]; DCM:Methanol (50:50 % v/v)
  XRPD results, primary co-crystal screen post storage at 40° C./75% RH: 2
  XRPD results, primary co-crystal screen post temperature cycling: 2
[1]; THF
  XRPD results, primary co-crystal screen post storage at 40° C./75% RH: 1
  XRPD results, primary co-crystal screen post temperature cycling: 1

## COc1cc(O[C@H]2C(C)(C)[C@H](NC(=O)c3ccc(N4CCC(CN5CCN(c6ccc(C(=O)N[C@H]7CCC(=O)NC7=O)c(F)c6)CC5)CC4)cc3)C2(C)C)ccc1C#N [free base Pattern 2]
[4]; [8]
  HPLC purity: 98.37 % relative area
  XRPD after stability storage: No change
[4]; 7 days at 80° C. (closed vial)
  HPLC purity: 98.33 % relative area
  XRPD after stability storage: No change
[4]; [9]
  HPLC purity: 98.27 % relative area
  XRPD after stability storage: No change
[4]; after 7 days at 40° C./75% RH
  Reported Purity: 98.37 Area %
  Total impurities: 1.63 Area %
[4]; after 7 days at 80° C.
  Reported Purity: 98.33 Area %
  Total impurities: 1.67 Area %
[4]; after 7 days at ambient
  Reported Purity: 98.27 Area %
  Total impurities: 1.73 Area %
[4]; [10]
  Reported Purity: 98.39 Area %
  Total impurities: 1.61 Area %
[4]; after 7 days at 40° C./75% RH (open vial), 80° C. (closed vial), ambient light (closed vial)
  purity retained after stability storage (HPLC): > 98 % relative area
[4]; before stability testing (condition N/A)
  HPLC purity: 98.39 % relative area

## NC(=O)c1cccnc1 [Nicotinamide]
[1]; 1,4-Dioxane
  XRPD results, primary co-crystal screen post storage at 40° C./75% RH: 4
  XRPD results, primary co-crystal screen post temperature cycling: 4
[1]; DCM:Methanol (50:50 % v/v)
  XRPD results, primary co-crystal screen post storage at 40° C./75% RH: 2
  XRPD results, primary co-crystal screen post temperature cycling: 2
[1]; DMSO:Water (50:50 % v/v)
  XRPD results, primary co-crystal screen post storage at 40° C./75% RH: 2
  XRPD results, primary co-crystal screen post temperature cycling: 2
[1]; THF
  XRPD results, primary co-crystal screen post storage at 40° C./75% RH: 1
  XRPD results, primary co-crystal screen post temperature cycling: 1
